± gives the expanded uncertainty stated by the source.
Assay: wn = mass fraction of the nth substance listed
Details: 313 K, 101.3 kPa, Liquid, w1 = 0.3

Question: For `CCNCCO` [2-(ethylamino)ethanol] + CCN(CC)CCO, which viscosity (Vibrating wire viscometry) is on record?
Answer: 3.83 ± 0.21 mPa·s

Question: And the mass density (petroleum hydrometers)?
Answer: 879 ± 3 kg/m3

— the NIST ThermoML archive (doi:10.1021/acs.jced.7b00761)
